Test results: publication PMC3791872 (Bioscience Reports, 2013)

Experiments:
[1] = target: T1, SsoMcm (Sulfolobus solfataricus Mcm protein) complex (Saccharolobus solfataricus, UniProt Q9UXG1); assay: SsoMcm helicase assay; format: biochemical; settings: 1 mM, 65°C, Figure S3
T1 sequence (Q9UXG1 1-686): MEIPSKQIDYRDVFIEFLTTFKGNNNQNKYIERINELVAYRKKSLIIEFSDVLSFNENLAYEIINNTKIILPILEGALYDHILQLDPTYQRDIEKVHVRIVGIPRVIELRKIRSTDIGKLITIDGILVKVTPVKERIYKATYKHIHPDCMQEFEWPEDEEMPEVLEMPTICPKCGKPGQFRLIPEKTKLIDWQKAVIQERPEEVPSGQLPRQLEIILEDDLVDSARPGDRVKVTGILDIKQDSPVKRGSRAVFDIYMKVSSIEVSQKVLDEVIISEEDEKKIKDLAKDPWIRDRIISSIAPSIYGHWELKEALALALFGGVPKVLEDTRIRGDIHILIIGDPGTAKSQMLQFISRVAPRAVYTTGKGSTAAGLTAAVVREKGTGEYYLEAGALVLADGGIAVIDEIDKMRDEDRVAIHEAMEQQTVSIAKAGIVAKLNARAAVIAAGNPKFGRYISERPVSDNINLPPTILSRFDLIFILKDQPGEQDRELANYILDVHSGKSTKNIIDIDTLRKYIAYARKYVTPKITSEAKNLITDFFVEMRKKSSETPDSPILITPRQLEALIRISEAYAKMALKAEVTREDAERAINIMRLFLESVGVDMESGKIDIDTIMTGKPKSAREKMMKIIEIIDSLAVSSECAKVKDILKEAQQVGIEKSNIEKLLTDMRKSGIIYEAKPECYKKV
Method: Helicase assays were performed essentially as described. Synthetic replication forks were prepared by annealing oligos 233 and 235 [IDT (Coralville), oligo 233 5′(T)40[…]; oligo 235 5′ […](T)40] and then filling in the recessed 3′-end with [α32P]dATP and unlabelled dNTPs using Klenow Fragment. Briefly, reactions ([…]) were performed in 1× helicase assay buffer [20 mM Tris/HCl (pH 7.5), 10 mM MgOAc, 20% (v/v) glycerol, 100 μM EDTA and 5 mM DTT (dithiothreitol)] and contained a final concentration of 1 nM fork substrate, 5 mM ATP, 40 mM creatine phosphate, […] creatine kinase, 33 μg/ml BSA. Reactions containing Mcm2-7 and Mcm467 were supplemented with 200 mM potassium glutamate. Reactions containing SsoMcm were incubated at 65°C, those containing T4 gp41 were incubated for 30 min at 37°C, and all other reactions were incubated at 37°C for 1 h. The products were separated by 10% (w/v) native PAGE, the resulting gels dried and the radioactivity quantified using a Fuji FLA-5100 phosphoimager. […] ATP was separated from ADP by PEI (polyethyleneimine) thin layer chromatography, and the ratio of ATP:ADP was quantified using a Fuji FLA-5100 phosphoimager. […] Protein–ssDNA binding was determined with a double filter-binding assay using an ssDNA probe (oligo 826, 5′[…]) that was 5′-radiolabelled using T4 polynucleotide kinase and [γ32P]ATP [16]. […]

RPE-hTERT cells = assay: Human cell viability, MTS method; format: cell-based; settings: Homo sapiens, 48 h, value (95% CI)
Method: Ciproﬂoxacin is an inhibitor of the Mcm2-7 […]
The viability of human cells was assayed using the MTS method
[1]. Brieﬂy, 1 ×10^5 cells of the human non-tumour cell line RPE-hTERT were plated into each well of a 96-well plate and grown in DMEM: F12 containing 10 % (v/v) FBS in 5 % (v/v) CO2 at 37 ◦ C. The next day, the indicated compounds were titrated into media such that the ﬁnal concentration contained 1 % (v/v)
DMSO. As a negative control, media were also prepared that contained 1 % DMSO but lacked compound. After 48 h, the media was removed and replaced with DMEM lacking phenol red but containing Cell Titer 96 Aqueous One Solution Cell Proliferation
Assay (Promega). After 1 h, the A490 nm was measured using a BioRad iMark Microplate Reader (Hercules). Final data reﬂect the average and standard deviation (S.D.) of three replicates at each compound concentration. […]

[2] = test system: S. cerevisiae ∆erg6 mcm4chaos3 (UPY1056); assay: Yeast growth inhibition, 96-well assay, ∆erg6 mcm4chaos3 strain; format: cell-based; settings: Saccharomyces cerevisiae; growth over 24 h
SV40 large TAg = target: T2, SV40 large TAg (Simian virus 40, UniProt P03070); assay: ssDNA double filter-binding assay, TAg; design: species or system SV40 (simian virus 40); settings: 1 mM compound, 150 nM helicase
T2 construct: made in house
T2 sequence (P03070 whole entry): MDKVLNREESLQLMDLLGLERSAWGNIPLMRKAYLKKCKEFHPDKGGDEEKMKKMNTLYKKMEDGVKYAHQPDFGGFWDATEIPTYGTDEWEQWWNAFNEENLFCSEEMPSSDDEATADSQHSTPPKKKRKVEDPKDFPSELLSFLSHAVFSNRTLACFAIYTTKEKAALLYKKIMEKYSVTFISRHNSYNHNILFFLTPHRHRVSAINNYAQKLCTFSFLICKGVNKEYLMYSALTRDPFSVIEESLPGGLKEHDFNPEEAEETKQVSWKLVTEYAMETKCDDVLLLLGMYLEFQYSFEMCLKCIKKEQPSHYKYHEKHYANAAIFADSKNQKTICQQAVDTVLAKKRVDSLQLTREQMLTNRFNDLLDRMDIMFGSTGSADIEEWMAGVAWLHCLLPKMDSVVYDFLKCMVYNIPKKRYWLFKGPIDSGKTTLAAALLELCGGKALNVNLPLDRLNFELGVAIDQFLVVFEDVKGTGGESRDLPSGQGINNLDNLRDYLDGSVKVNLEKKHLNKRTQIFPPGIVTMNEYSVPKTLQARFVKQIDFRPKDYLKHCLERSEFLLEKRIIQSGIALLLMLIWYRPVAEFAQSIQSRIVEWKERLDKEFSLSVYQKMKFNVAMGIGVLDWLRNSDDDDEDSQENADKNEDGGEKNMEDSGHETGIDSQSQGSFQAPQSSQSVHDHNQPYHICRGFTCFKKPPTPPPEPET

Mcm467 = target: T3, Mcm467 (Saccharomyces cerevisiae, UniProt P30665+P38132+P53091); assay: Steady-state ATP hydrolysis by Mcm467; format: biochemical; settings: 1 mM compound, 100 nM hexamer
T3 construct: made in house; host or cells: baculovirus-infected insect cells
T3 sequence (P30665 whole entry): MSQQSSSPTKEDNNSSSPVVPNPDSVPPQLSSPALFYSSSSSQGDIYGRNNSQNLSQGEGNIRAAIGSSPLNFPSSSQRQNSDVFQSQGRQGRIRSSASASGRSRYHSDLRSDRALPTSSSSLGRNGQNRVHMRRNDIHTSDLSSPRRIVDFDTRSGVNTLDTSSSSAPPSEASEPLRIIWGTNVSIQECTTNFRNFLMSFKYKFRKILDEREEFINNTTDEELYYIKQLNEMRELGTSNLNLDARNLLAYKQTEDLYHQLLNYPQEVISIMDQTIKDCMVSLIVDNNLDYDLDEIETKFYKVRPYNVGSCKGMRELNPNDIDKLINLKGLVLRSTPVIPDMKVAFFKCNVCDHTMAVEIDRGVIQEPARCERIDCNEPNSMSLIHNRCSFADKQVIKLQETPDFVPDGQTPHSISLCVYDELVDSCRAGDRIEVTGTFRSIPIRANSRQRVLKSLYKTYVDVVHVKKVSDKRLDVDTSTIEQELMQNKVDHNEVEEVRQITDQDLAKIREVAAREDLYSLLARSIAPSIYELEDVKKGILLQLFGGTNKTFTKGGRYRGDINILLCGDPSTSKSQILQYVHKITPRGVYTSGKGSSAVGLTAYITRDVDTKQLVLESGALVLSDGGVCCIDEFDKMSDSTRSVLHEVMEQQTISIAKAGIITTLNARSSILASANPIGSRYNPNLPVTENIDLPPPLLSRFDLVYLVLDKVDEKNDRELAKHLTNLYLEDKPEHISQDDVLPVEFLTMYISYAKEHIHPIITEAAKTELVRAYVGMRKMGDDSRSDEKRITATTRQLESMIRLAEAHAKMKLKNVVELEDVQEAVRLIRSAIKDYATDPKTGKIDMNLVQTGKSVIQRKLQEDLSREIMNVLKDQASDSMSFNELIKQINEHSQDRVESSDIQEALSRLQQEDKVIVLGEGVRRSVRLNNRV
T3 sequence (P53091 whole entry): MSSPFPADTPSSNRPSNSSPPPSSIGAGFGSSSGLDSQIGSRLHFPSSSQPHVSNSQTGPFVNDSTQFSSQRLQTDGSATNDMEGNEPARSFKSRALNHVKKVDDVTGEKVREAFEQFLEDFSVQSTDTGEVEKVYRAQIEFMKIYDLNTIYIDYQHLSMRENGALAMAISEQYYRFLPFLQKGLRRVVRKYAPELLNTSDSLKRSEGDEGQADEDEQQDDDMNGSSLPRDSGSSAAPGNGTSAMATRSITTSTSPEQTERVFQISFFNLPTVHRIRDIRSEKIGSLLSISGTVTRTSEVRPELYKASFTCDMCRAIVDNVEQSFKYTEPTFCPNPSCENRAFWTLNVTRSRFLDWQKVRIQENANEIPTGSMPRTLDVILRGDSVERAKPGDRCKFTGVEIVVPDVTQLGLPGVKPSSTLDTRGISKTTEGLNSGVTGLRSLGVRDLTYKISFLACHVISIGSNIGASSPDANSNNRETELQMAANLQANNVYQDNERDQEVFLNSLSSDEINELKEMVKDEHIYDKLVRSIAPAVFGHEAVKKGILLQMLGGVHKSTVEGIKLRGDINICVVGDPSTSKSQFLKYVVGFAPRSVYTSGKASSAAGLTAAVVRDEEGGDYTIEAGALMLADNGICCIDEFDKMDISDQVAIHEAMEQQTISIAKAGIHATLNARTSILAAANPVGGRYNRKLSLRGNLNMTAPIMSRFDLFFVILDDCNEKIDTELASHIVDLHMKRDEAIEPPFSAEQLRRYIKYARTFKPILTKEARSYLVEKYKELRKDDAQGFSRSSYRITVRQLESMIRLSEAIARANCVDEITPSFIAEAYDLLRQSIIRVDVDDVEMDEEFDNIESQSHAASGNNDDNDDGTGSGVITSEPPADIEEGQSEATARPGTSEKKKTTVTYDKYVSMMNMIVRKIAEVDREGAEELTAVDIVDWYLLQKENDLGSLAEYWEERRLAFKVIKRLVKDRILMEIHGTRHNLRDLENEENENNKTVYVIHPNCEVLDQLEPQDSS
T3 sequence (P38132 whole entry): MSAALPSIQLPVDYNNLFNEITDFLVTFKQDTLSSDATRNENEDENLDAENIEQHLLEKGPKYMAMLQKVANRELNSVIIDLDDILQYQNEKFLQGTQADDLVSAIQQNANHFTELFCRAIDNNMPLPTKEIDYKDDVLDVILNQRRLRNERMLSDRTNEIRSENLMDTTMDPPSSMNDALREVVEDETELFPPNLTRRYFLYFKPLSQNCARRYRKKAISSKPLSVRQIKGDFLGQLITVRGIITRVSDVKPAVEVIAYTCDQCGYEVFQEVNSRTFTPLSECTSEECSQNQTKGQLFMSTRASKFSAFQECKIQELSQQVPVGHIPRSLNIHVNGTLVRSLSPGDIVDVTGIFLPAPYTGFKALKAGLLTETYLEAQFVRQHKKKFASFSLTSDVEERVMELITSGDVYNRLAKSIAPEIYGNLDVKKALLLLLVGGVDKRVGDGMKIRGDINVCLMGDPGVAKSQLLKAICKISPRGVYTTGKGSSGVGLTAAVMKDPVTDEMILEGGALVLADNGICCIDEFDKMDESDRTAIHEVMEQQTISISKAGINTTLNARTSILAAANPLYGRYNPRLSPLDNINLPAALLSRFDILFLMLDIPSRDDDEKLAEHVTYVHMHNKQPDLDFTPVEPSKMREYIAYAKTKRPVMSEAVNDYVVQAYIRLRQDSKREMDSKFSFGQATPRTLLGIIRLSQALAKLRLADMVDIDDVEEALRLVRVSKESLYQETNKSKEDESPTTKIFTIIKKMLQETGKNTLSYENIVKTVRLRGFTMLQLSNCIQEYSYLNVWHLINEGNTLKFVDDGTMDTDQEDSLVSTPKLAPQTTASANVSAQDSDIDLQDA

O=C(O)c1cn(C2CC2)c2cc(N3CCNCC3)c(F)cc2c1=O [Ciprofloxacin, ciprofloxacin, reference compound]
inhibition of SsoMcm helicase [1]: none of the tested helicases were substantially inhibited | IC50 (RPE-hTERT cells): 240 µM | IC50 [2]: 1300 µM | effect on ssDNA binding of TAg (SV40 large TAg): only modest effects | effect on ATP hydrolysis of Mcm467 (Mcm467): only modest effects
